Measured values as given in patent publication US20100260674A1, “QUINAZOLINE DERIVATIVES AND METHODS OF TREATMENT” (Concert Pharmaceuticals, Inc., priority 2006, published 2010).
Counter-ions that a name gives are not always drawn.

Assay: Metabolic stability in pooled human liver microsomes
Conditions: 0.5 mg/mL HLM
Method: The metabolic stability of compounds of the invention was tested using pooled liver microsomal incubations. Full scan LC-MS analysis was then performed to detect major metabolites. Samples of the test compounds, exposed to pooled human liver microsomes, were analyzed using HPLC-MS (or MS/MS) detection. For determining metabolic stability, multiple reaction monitoring (MRM) was used to measure the disappearance of the test compounds. Q1 full scans were used to detect the major metabolites.
Experimental Procedures. Human liver microsomes (“HLM”; 20 mg/mL) are obtained from Xenotech, LLC (Lenexa, Kans.). β-nicotinamide adenine dinucleotide phosphate, reduced form (NADPH), magnesium chloride (MgCl2), and dimethyl sulfoxide (DMSO) are purchased from Sigma-Aldrich.
Stock solutions of test compounds (7.5 mM) were prepared in DMSO. […] The 20 mg/mL human liver microsomes were diluted to 0.625 mg/mL in 0.1 M potassium phosphate buffer, pH 7.4, containing 3 mM MgCl2. The diluted microsomes (375 μL) were added to wells of a 96-well deep-well polypropylene plate in triplicate. […] Reactions were initiated by addition of 125 μL of pre-warmed NADPH solution (8 mM NADPH in 0.1M potassium phosphate buffer, pH 7.4, containing 3 mM MgCl2). […] The reaction mixtures were incubated at 37° C., and 50 μL aliquots were removed at 0, 5, 10, 20, and 30 minutes and added to shallow-well 96-well plates which contained 50 μL of ice-cold ACN with internal standard to stop the reactions. The plates were stored at 4° C. for 20 minutes after which 100 μL of water was added to the wells of the plate before centrifugation to pellet precipitated proteins. Supernatants were transferred to another 96-well plate and analyzed for amounts of parent remaining by LC-MS/MS using an Applied Bio-systems API 4000 mass spectrometer.
The in vitro t1/2s for test compounds were calculated from the slopes of the linear regression of % parent remaining (ln) vs incubation time relationship. in vitro t1/2=0.693/k, where k=−[slope of linear regression of % parent remaining(ln) vs incubation time]. Data analysis was performed using Microsoft Excel Software.
For `[2H]C([2H])([2H])OC([2H])([2H])COc1cc2ncnc(Nc3cccc(C#C)c3)c2cc1OCC([2H])([2H])OC([2H])([2H])[2H]` [Compound 109, N-(3-(Ethynyl-d1)phenyl)-6,7-bis(2-(methoxy-d3)-2,2-d2-ethoxy) quinazolin-4-amine], the “longer t1/2 compared to erlotinib” value was 44%.

Same assay, conditions: human, microsomes, pH 7.4
Molecule `C#Cc1cccc(Nc2ncnc3cc(OCCOC)c(OCCOC)cc23)c1` [erlotinib, N-(3-ethynylphenyl)-6,7-bis(2-methoxyethoxy)quinazolin-4-amine, reference compound] has a half-life at 1 μM of 57.8 min.
In the case of `[2H]C([2H])([2H])OCCOc1cc2ncnc(Nc3cccc(C#C)c3)c2cc1OCCOC([2H])([2H])[2H]` [Compound 105, N-(3-Ethynylphenyl)-6,7-bis(2-(methoxy-d3)ethoxy)quinazolin-4-amine hydrochloride], the half-life at 1 μM is reported as 62.3 min.
Molecule `[2H]C#Cc1cccc(Nc2ncnc3cc(OCCOC)c(OCCOC)cc23)c1` [Compound 110, N-(3-(Ethynyl-d1)phenyl)-6,7-bis(2-methoxyethoxy) quinazolin-4-amine hydrochloride] has a half-life at 1 μM of 42.7 min.
For `[2H]C([2H])(COc1cc2ncnc(Nc3cccc(C#C)c3)c2cc1OCC([2H])([2H])OC)OC` [Compound 106, N-(3-ethynylphenyl)-6,7-bis(2-methoxyethoxy)quinazolin-4-amine], the half-life at 1 μM was 43.8 min.
With `[2H]C([2H])([2H])OC([2H])([2H])COc1cc2ncnc(Nc3cccc(C#C)c3)c2cc1OCC([2H])([2H])OC([2H])([2H])[2H]` [Compound 109, N-(3-(Ethynyl-d1)phenyl)-6,7-bis(2-(methoxy-d3)-2,2-d2-ethoxy) quinazolin-4-amine] the half-life at 1 μM was 83.5 min.
